US20250034216A1, “STEREOSELECTIVE COVALENT LIGANDS FOR ONCOGENIC AND IMMUNOLOGICAL PROTEINS” (The Scripps Research Institute, priority 2021, published 2025)

Legend:
Assay in all cases: IA-DTB cysteine engagement, GluC + trypsin digest
Format in all cases: binding
Details in all cases: 22Rv1 cells
PSME1 106 = target: T1, PSME1 106 (Homo sapiens, UniProt Q06323)
T1 construct: stereoselectively engaged C22 of endogenous PSME1 in 22Rv1 cells; endogenous in cells; host or cells: 22Rv1
Protocol: (§1) Sample preparation: Cells (adherent: 15 cm dishes, suspension: 2 million cells/mL) were treated with electrophilic probes in situ for indicated times and concentrations, washed with ice-cold PBS, and flash frozen in liquid nitrogen. Cell pellets were lysed by sonication (8 pulses, 40% power) in 500 μL ice-cold PBS supplemented with cOmplete protease inhibitors (1 tablet/10 mL of PBS). Whole cell lysates protein content was measured using a standard DC protein assay (Bio-Rad) and 500 μL (2 mg/mL protein content) were treated with 5 μL of 10 mM 1A-DTB (in DMSO) for 1 h at ambient temperature with occasional vortexing. Samples were methanol-chloroform precipitated with the addition of 500 μL ice-cold MeOH and 200 μL CHCl3, vortexed, and centrifuged (10 min, 10,000 g). Without disrupting the protein disk, both top and bottom layers were aspirated and the protein disk was washed with 1 mL ice-cold MeOH and centrifuged (10 min, 10,000 g). The pellets were allowed to air dry, and then re-suspended in 90 μL buffer (9 M urea, 10 mM DTT, 50 mM TEAB pH 8.5). Samples were reduced by heating at 65 C for 20 minutes and water bath sonicated as needed to resuspend the protein pellets, followed by alkylation via addition of 10 μL (500 mM) iodoacetamide and incubated at 37 C for 30 min with shaking. Samples were briefly centrifuged, and probe sonicated once more to ensure complete resuspension, and then diluted with 300 μL buffer (50 mM TEAB pH 8.5) to reach final concentration of 2 M urea. […] Digested samples were then diluted with 300 μL wash buffer (50 mM TEAB pH 8.5, 150 mM NaCl, 0.2% NP-40) containing streptavidin-agarose beads (50 μL of 50% slurry in wash buffer) and were rotated at room temperature for 2 hours. Enriched samples were pelleted by centrifugation (2000 g, 2 min) and transferred to BioSpin columns and washed (3×1 mL wash buffer, 3×1 mL PBS, 3×1 mL water). Enriched peptides were eluted by 300 μL 50% acetonitrile with 0.1% formic acid and eluate was evaporated to dryness via speedvac. IA-DTB labeled and enriched peptides were resuspended in 100 μL EPPS buffer (200 mM, pH 8.0) with 30% acetonitrile, vortexed, and water bath sonicated. Samples were TMT labeled with 3 μL of corresponding TMT tag (5 mg tag resuspended in 256 μL acetonitrile), vortexed, and incubated at room temperature for 1 hour. TMT labeling was quenched with the addition of hydroxylamine (5 μL 5% solution in H2O) and incubated for 15 minutes at room temperature. Samples were then acidified with 5 μL formic acid, combined and dried using a SpeedVac. Samples were desalted via Sep-Pak and then high pH fractionated.
(§2) Data processing: Cysteine engagement ratios (probe vs DMSO) were calculated for each peptide-spectra match by dividing each TMT reporter ion intensity by the average intensity for the channels corresponding to DMSO treatment. Peptide-spectra matches were then grouped based on protein ID and residue number (e.g., PSME1 C22), […] ion intensities for the DMSO channels <10,000, coefficient of variation for DMSO channels >0.5, […] TMT reporter ion intensities were normalized to the median summed signal intensity across channels.
(§3) Samples were analyzed by liquid chromatography tandem mass-spectrometry using an Orbitrap Fusion mass spectrometer (Thermo Scientific) coupled to an UltiMate 3000 Series Rapid Separation LC system and autosampler (Thermo Scientific Dionex). The peptides were eluted onto a capillary column (75 μm inner diameter fused silica, packed with C18 (Waters, Acquity BEH C18, 1.7 μm, 25 cm)) or an EASY-Spray HPLC column (Thermo ES902, ES903) using an Acclaim PepMap 100 (Thermo 164535) loading column, and separated at a flow rate of 0.25 μL/min. Data was acquired using an MS3-based TMT method on Orbitrap Fusion or Orbitrap Eclipse Tribrid Mass Spectrometers. […]

SF3B1 796 = target: T2, SF3B1 796 (Homo sapiens, UniProt O75533)
T2 construct: endogenous in cells; host or cells: 22Rv1
Protocol: as §1, §2, §3

SF3B1 933 = target: T3, SF3B1 933 (Homo sapiens, UniProt O75533+Q7RTV0)
T3 construct: Cysteine engagement data from 22Rv1 cells treated; endogenous in cells; host or cells: 22Rv1
Protocol: as §1, §2, §3

SF3B1 965 = target: T4, SF3B1 965 (Homo sapiens, UniProt O75533+Q7RTV0)
T4 construct: Cysteine engagement data from 22Rv1 cells treated; endogenous in cells; host or cells: 22Rv1
Protocol: as §1, §2, §3

SF3B1 1035 = target: T5, SF3B1 1035 (Homo sapiens, UniProt O75533+Q7RTV0)
T5 construct: Cysteine engagement data from 22Rv1 cells treated; endogenous in cells; host or cells: 22Rv1
Protocol: as §1, §2, §3

SF3B1 795 = target: T6, SF3B1 795 (Homo sapiens, UniProt O75533)
T6 construct: endogenous in cells; host or cells: 22Rv1
Protocol: as §1, §2, §3

SF3B1 1123 = target: T7, SF3B1 1123 (Homo sapiens, UniProt O75533+Q7RTV0)
T7 construct: Cysteine engagement data from 22Rv1 cells treated; endogenous in cells; host or cells: 22Rv1
Protocol: as §1, §2, §3

SF3B1 1244 = target: T8, SF3B1 1244 (Homo sapiens, UniProt O75533+Q7RTV0)
T8 construct: Cysteine engagement data from 22Rv1 cells treated; endogenous in cells; host or cells: 22Rv1
Protocol: as §1, §2, §3

PSME1 101 = target: T9, PSME1 101 (Homo sapiens, UniProt Q06323)
T9 construct: stereoselectively engaged C22 of endogenous PSME1 in 22Rv1 cells; endogenous in cells; host or cells: 22Rv1
Protocol: as §1, §2, §3

T7 sequence (O75533 whole entry): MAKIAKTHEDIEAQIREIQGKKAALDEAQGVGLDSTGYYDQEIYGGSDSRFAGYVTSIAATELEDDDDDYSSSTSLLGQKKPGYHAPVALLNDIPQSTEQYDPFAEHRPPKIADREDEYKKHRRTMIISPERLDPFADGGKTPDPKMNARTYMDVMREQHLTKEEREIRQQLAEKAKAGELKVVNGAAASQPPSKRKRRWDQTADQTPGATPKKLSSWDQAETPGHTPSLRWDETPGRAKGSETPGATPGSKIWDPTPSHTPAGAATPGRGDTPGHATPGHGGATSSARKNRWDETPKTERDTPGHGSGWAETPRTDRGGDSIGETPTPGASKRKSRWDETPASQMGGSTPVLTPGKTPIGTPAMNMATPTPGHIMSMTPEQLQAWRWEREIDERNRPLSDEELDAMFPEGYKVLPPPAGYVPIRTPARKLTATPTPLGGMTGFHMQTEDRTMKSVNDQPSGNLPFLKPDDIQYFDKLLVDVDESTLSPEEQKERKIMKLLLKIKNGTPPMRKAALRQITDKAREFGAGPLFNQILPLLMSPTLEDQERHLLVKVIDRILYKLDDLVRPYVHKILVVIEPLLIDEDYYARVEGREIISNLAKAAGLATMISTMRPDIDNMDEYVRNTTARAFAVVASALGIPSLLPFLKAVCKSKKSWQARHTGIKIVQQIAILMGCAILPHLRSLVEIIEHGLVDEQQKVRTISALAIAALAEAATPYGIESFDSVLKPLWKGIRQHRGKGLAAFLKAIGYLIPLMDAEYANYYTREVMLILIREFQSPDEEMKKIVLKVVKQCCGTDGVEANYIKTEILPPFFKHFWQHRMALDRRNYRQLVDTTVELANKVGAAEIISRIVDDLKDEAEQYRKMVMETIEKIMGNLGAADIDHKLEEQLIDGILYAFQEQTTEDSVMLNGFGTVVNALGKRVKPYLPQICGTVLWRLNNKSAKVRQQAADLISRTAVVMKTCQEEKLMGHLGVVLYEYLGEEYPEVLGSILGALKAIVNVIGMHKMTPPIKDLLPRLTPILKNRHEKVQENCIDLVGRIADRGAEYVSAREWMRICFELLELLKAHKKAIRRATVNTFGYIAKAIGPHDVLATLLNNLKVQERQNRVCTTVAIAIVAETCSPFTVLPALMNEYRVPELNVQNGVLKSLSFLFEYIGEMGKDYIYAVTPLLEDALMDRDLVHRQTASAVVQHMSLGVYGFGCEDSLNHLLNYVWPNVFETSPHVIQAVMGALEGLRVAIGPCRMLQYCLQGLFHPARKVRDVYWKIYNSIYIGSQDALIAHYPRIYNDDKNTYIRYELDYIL
T7 sequence (Q7RTV0 whole entry): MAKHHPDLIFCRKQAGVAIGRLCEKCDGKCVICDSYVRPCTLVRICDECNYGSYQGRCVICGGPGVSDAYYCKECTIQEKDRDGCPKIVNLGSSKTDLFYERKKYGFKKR
T7 sequence (Q15393 whole entry partner): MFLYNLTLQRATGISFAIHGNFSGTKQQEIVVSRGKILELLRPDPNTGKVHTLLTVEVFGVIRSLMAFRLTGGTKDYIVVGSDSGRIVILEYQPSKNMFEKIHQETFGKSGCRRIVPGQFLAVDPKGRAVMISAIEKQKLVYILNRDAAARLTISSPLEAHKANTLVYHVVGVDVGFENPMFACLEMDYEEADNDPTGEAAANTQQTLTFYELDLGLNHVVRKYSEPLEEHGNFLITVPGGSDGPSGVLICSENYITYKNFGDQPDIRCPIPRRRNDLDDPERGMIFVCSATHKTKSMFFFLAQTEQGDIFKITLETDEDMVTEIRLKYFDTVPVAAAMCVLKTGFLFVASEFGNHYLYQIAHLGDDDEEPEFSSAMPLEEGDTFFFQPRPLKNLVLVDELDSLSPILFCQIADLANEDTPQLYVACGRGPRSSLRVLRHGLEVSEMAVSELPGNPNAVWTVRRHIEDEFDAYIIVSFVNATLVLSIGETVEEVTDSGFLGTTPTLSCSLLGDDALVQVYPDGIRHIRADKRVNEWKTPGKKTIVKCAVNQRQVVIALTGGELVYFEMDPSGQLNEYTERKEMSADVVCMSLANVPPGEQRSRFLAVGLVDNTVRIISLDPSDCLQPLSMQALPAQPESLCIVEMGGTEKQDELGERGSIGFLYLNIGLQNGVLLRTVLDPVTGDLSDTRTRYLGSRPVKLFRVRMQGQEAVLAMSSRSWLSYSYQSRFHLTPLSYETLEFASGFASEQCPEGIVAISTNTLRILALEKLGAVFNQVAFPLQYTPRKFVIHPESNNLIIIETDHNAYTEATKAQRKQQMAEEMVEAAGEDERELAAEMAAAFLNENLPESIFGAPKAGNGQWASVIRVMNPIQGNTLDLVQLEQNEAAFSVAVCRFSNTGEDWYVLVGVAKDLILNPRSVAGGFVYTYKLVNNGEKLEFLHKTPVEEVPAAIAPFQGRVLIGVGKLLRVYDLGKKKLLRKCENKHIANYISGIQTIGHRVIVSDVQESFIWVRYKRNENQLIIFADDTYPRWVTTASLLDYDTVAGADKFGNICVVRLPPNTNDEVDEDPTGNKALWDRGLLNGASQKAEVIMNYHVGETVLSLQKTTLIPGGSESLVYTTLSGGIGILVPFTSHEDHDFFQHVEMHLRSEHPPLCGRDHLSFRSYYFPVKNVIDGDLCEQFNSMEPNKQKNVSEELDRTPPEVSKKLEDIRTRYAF
T7 sequence (Q9BWJ5 whole entry partner): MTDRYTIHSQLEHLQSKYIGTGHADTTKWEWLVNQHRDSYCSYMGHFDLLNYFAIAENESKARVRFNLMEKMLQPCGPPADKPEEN
T6 sequence (O75533 whole entry): as the sequence (O75533 whole entry) above
T3 sequence (O75533 whole entry): as above
T3 sequence (Q7RTV0 whole entry): as the sequence (Q7RTV0 whole entry) above
T3 sequence (Q15393 whole entry partner): as the sequence (Q15393 whole entry partner) above
T3 sequence (Q9BWJ5 whole entry partner): as the sequence (Q9BWJ5 whole entry partner) above
T5 sequence (O75533 whole entry): as the sequence (O75533 whole entry) above
T5 sequence (Q7RTV0 whole entry): as the sequence (Q7RTV0 whole entry) above
T5 sequence (Q15393 whole entry partner): as the sequence (Q15393 whole entry partner) above
T5 sequence (Q9BWJ5 whole entry partner): as the sequence (Q9BWJ5 whole entry partner) above
T2 sequence (O75533 whole entry): as the sequence (O75533 whole entry) above
T8 sequence (O75533 whole entry): as above
T8 sequence (Q7RTV0 whole entry): as the sequence (Q7RTV0 whole entry) above
T8 sequence (Q15393 whole entry partner): as the sequence (Q15393 whole entry partner) above
T8 sequence (Q9BWJ5 whole entry partner): as the sequence (Q9BWJ5 whole entry partner) above
T4 sequence (O75533 whole entry): as the sequence (O75533 whole entry) above
T4 sequence (Q7RTV0 whole entry): as the sequence (Q7RTV0 whole entry) above
T4 sequence (Q15393 whole entry partner): as the sequence (Q15393 whole entry partner) above
T4 sequence (Q9BWJ5 whole entry partner): as the sequence (Q9BWJ5 whole entry partner) above
T9 sequence (Q06323 whole entry): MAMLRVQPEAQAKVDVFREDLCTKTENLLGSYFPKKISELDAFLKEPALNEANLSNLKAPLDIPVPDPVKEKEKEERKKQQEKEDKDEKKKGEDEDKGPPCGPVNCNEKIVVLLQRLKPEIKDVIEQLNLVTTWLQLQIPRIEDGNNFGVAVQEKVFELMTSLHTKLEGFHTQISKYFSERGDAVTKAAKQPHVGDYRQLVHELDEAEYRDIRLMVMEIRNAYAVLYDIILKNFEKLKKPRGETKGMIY
T1 sequence (Q06323 whole entry): as above

percent engagement relative to DMSO, PSME1 106 (PSME1 106; 5 uM) [%]	percent engagement relative to DMSO, PSME1 106 (PSME1 106; 20 uM) [%]	percent engagement relative to DMSO, SF3B1 796 (SF3B1 796; 5 uM) [%]	percent engagement relative to DMSO, SF3B1 796 (SF3B1 796; 20 uM) [%]	percent engagement relative to DMSO, SF3B1 933 (SF3B1 933; 5 uM) [%]	percent engagement relative to DMSO, SF3B1 933 (SF3B1 933; 20 uM) [%]	percent engagement relative to DMSO, SF3B1 965 (SF3B1 965; 5 uM) [%]	percent engagement relative to DMSO, SF3B1 965 (SF3B1 965; 20 uM) [%]	percent engagement relative to DMSO, SF3B1 1035 (SF3B1 1035; 5 uM) [%]	percent engagement relative to DMSO, SF3B1 1035 (SF3B1 1035; 20 uM) [%]	percent engagement relative to DMSO, SF3B1 795 (SF3B1 795; 5 uM) [%]	percent engagement relative to DMSO, SF3B1 795 (SF3B1 795; 20 uM) [%]	percent engagement relative to DMSO, SF3B1 1123 (SF3B1 1123; 5 uM) [%]	percent engagement relative to DMSO, SF3B1 1123 (SF3B1 1123; 20 uM) [%]	percent engagement relative to DMSO, SF3B1 1244 (SF3B1 1244; 5 uM) [%]	percent engagement relative to DMSO, SF3B1 1244 (SF3B1 1244; 20 uM) [%]	percent engagement relative to DMSO, PSME1 101 (PSME1 101; 5 uM) [%]	percent engagement relative to DMSO, PSME1 101 (PSME1 101; 20 uM) [%]	SMILES
−4.44	−17.66	−6.42	−5.075	−7.02	−4.95	−15.75	−8.665	−9.265	−6.03	−4.58	−5.905	5.965	21.005	−11.92	−12.54	−4.575	−14.73	C=CC(=O)N1[C@H](c2ccc3c(c2)OCO3)c2[nH]c3ccccc3c2C[C@H]1C(=O)N1CCOCC1 [WX-02-23, 1-((1R,3S)-1-(benzo[d][1,3]dioxol-S-yl)-3-(morpholine-4-carbonyl)-1,3,4,9-tetrahydro-2H-pyrido [3,4-b]indol-2-yl)prop-2-en-1-one]
−7.69	−20.355	6.755	7.34	6.345	2.595	1.985	13.895	1.53	8.13	5.715	3.145	1.425	21.84	−1.065	−1.615	−9.325	−5.635	C=CC(=O)N1[C@@H](c2ccc3c(c2)OCO3)c2[nH]c3ccccc3c2C[C@@H]1C(=O)N1CCOCC1 [WX-02-43, 1-((1S,3R)-1-(benzo[d][1,3]dioxol-5-yl)-3-(morpholine-4-carbonyl)-1,3,4,9-tetrahydro-2H-pyrido [3,4-b]indol-2-yl)prop-2-en-1-one]
